Assay results as given in the supplement of paper PMC11451515.

Legend:
Conditions in all cases: 48 h
SEM cells [1] = test: AUC of viability dose-response curve (% viability x log10 dose units); higher = less sensitive
Procedure, shortened: (§1)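 Seeding of medium-adapted leukemia cells was at 500 or 1000 cells/well in 1536-well plates, followed by 48 h at 37°C with library compounds in DMSO at 11 threefold doses from 47 μM to 0.79 nM. CellTiter-Glo One luminescence was normalised per plate to DMSO and cell-free wells and fitted as a four-parameter log-logistic function of log10 dose. Area under the curve was integrated by trapezoidal rule, with curves exceeding full viability scaled and curves failing quality control removed.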

NOMO1 [2] = test: as above
Procedure, shortened: as §1

P12-Ichikawa [3] = test: as above
Procedure, shortened: as §1

SEM cells [4] = test: cell viability relative to DMSO control; higher = less cytotoxic
Procedure, shortened: (§2)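 Viability values are per-plate percentages of DMSO wells, with background from cell-free wells. Library compounds in DMSO were pin-dosed, in an 11-point threefold series from 47 μM to 0.79 nM, onto NOMO1 or SEM (500 cells/well) or P12-Ichikawa (1000 cells/well) leukemia cells in 1536-well plates (5 μl). Those cells had been adapted for at least four passages in each medium, and CellTiter-Glo One luminescence was read after 48 h at 37°C.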

NOMO1 [5] = test: as above
Procedure, shortened: as §2

P12-Ichikawa [6] = test: as above
Procedure, shortened: as §2

N#C/C(C(=O)c1ccc(Cl)cc1Cl)=C1/NC(=O)c2ccc(Cl)cc2N1
AUC of viability dose-response curve
Conditions | NOMO1 [2] | P12-Ichikawa [3] | SEM cells [1]
HPLM + 10% dialyzed FBS | 453 | 451 | 459
RPMI 5 mM glucose + 10% FBS | 453 | 440 | 449
RPMI 5 mM glucose + 10% dialyzed FBS | 456 | 463 | 454

cell viability [%]
Conditions | NOMO1 [5] | P12-Ichikawa [6] | SEM cells [4]
HPLM + 10% dialyzed FBS, 0.000781 µM | 117 | 114 | 124
HPLM + 10% dialyzed FBS, 0.00234 µM | 108 | 123 | 132
HPLM + 10% dialyzed FBS, 0.00702 µM | 122 | 108 | 124
HPLM + 10% dialyzed FBS, 0.0211 µM | 128 | 115 | 125
HPLM + 10% dialyzed FBS, 0.0632 µM | 130 | 111 | 129
HPLM + 10% dialyzed FBS, 0.19 µM | 117 | 111 | 121
HPLM + 10% dialyzed FBS, 0.569 µM | 114 | 110 | 123
HPLM + 10% dialyzed FBS, 1.71 µM | 105 | 106 | 112
HPLM + 10% dialyzed FBS, 5.12 µM | 109 | 103 | 110
HPLM + 10% dialyzed FBS, 15.4 µM | 102 | 107 | 117
HPLM + 10% dialyzed FBS, 46.1 µM | 106 | 107 | 111
RPMI 5 mM glucose + 10% FBS, 0.000781 µM | 105 | 115 | –
RPMI 5 mM glucose + 10% FBS, 0.00234 µM | 119 | 119 | –
RPMI 5 mM glucose + 10% FBS, 0.00702 µM | 111 | 117 | –
RPMI 5 mM glucose + 10% FBS, 0.0211 µM | 109 | 107 | –
RPMI 5 mM glucose + 10% FBS, 0.0632 µM | 105 | 106 | –
RPMI 5 mM glucose + 10% FBS, 0.19 µM | 111 | 111 | –
RPMI 5 mM glucose + 10% FBS, 0.569 µM | 103 | 107 | –
RPMI 5 mM glucose + 10% FBS, 1.71 µM | 102 | 103 | –
RPMI 5 mM glucose + 10% FBS, 5.12 µM | 94.5 | 105 | –
RPMI 5 mM glucose + 10% FBS, 15.4 µM | 95.1 | 105 | –
RPMI 5 mM glucose + 10% FBS, 46.1 µM | 98.2 | 94.2 | –
RPMI 5 mM glucose + 10% dialyzed FBS, 0.000781 µM | 113 | 106 | 99.5
RPMI 5 mM glucose + 10% dialyzed FBS, 0.00234 µM | 114 | 106 | 125
RPMI 5 mM glucose + 10% dialyzed FBS, 0.00702 µM | 114 | 107 | 131
RPMI 5 mM glucose + 10% dialyzed FBS, 0.0211 µM | 104 | 110 | 126
RPMI 5 mM glucose + 10% dialyzed FBS, 0.0632 µM | 118 | 112 | 127
RPMI 5 mM glucose + 10% dialyzed FBS, 0.19 µM | 114 | 98.9 | 108
RPMI 5 mM glucose + 10% dialyzed FBS, 0.569 µM | 107 | 107 | 111
RPMI 5 mM glucose + 10% dialyzed FBS, 1.71 µM | 103 | 104 | 137
RPMI 5 mM glucose + 10% dialyzed FBS, 5.12 µM | 110 | 97.8 | 79.5
RPMI 5 mM glucose + 10% dialyzed FBS, 15.4 µM | 103 | 101 | 105
RPMI 5 mM glucose + 10% dialyzed FBS, 46.1 µM | 105 | 98.3 | 108

COc1cccc2c1[C@]13CCN(CC4CC4)[C@H](C2)[C@]1(OC)CCC(=O)C3
AUC of viability dose-response curve
Conditions | NOMO1 [2] | P12-Ichikawa [3] | SEM cells [1]
HPLM + 10% dialyzed FBS | 469 | 451 | 422
RPMI 5 mM glucose + 10% FBS | 459 | 436 | 416
RPMI 5 mM glucose + 10% dialyzed FBS | 473 | 446 | 421

cell viability [%]
Conditions | NOMO1 [5] | P12-Ichikawa [6] | SEM cells [4]
HPLM + 10% dialyzed FBS, 0.000781 µM | 89.7 | 99.7 | 71.3
HPLM + 10% dialyzed FBS, 0.00234 µM | 96.5 | 120 | 90.6
HPLM + 10% dialyzed FBS, 0.00702 µM | 127 | 66.7 | 20
HPLM + 10% dialyzed FBS, 0.0211 µM | 121 | 124 | 108
HPLM + 10% dialyzed FBS, 0.0632 µM | 118 | 125 | 106
HPLM + 10% dialyzed FBS, 0.19 µM | 119 | 122 | 105
HPLM + 10% dialyzed FBS, 0.569 µM | 116 | 121 | 107
HPLM + 10% dialyzed FBS, 1.71 µM | 129 | 121 | 109
HPLM + 10% dialyzed FBS, 5.12 µM | 122 | 127 | 116
HPLM + 10% dialyzed FBS, 15.4 µM | 82.2 | 116 | 120
HPLM + 10% dialyzed FBS, 46.1 µM | 111 | 119 | 111
RPMI 5 mM glucose + 10% FBS, 0.000781 µM | 101 | 94.6 | 89.4
RPMI 5 mM glucose + 10% FBS, 0.00234 µM | 111 | 113 | 123
RPMI 5 mM glucose + 10% FBS, 0.00702 µM | 103 | 56.9 | 8.7
RPMI 5 mM glucose + 10% FBS, 0.0211 µM | 124 | 110 | 113
RPMI 5 mM glucose + 10% FBS, 0.0632 µM | 126 | 136 | 116
RPMI 5 mM glucose + 10% FBS, 0.19 µM | 117 | 129 | 107
RPMI 5 mM glucose + 10% FBS, 0.569 µM | 132 | 127 | 97
RPMI 5 mM glucose + 10% FBS, 1.71 µM | 125 | 121 | 113
RPMI 5 mM glucose + 10% FBS, 5.12 µM | 133 | 123 | 122
RPMI 5 mM glucose + 10% FBS, 15.4 µM | 110 | 117 | 98.4
RPMI 5 mM glucose + 10% FBS, 46.1 µM | 124 | 123 | 110
RPMI 5 mM glucose + 10% dialyzed FBS, 0.000781 µM | 106 | 92.9 | 81.2
RPMI 5 mM glucose + 10% dialyzed FBS, 0.00234 µM | 108 | 120 | 108
RPMI 5 mM glucose + 10% dialyzed FBS, 0.00702 µM | 106 | 68.7 | 18.8
RPMI 5 mM glucose + 10% dialyzed FBS, 0.0211 µM | 111 | 120 | 99.8
RPMI 5 mM glucose + 10% dialyzed FBS, 0.0632 µM | 110 | 123 | 105
RPMI 5 mM glucose + 10% dialyzed FBS, 0.19 µM | 116 | 127 | 106
RPMI 5 mM glucose + 10% dialyzed FBS, 0.569 µM | 109 | 133 | 84.6
RPMI 5 mM glucose + 10% dialyzed FBS, 1.71 µM | 111 | 118 | 97.4
RPMI 5 mM glucose + 10% dialyzed FBS, 5.12 µM | 105 | 122 | 93.3
RPMI 5 mM glucose + 10% dialyzed FBS, 15.4 µM | 106 | 127 | 95.6
RPMI 5 mM glucose + 10% dialyzed FBS, 46.1 µM | 105 | 116 | 80.7
